# Columns and labels:
# [1] = tested on: brains, heart, liver, muscle, and DRG of the NHPs; assay: Maturation of TTM-001 and TTM-002 capsids, NGS enrichment in NHP tissues; format: in vivo; details: relative to AAV9 control
# In short: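 Variants carry mutations within and flanking the loop IV peptide insert: positions 450–466 were triplet-randomized, while positions 449–466 received low-frequency point mutations. The combined pool went into two NHPs, and each peptide was scored by NGS enrichment ratio against AAV9.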
# brain = assay: Matured TTM-001 and TTM-002 variants, NGS enrichment in mouse brain; format: in vivo, mice; details: relative to AAV9 control
# [2] = NGS fold-enrichment of matured AAV capsid variants, NHP brain, RNA
# [3] = NGS fold-enrichment, DRG of NHPs
# [4] = NGS fold-enrichment, RNA, brain of NHPs
# [5] = NGS fold-enrichment, heart of NHPs
# [6] = NGS fold-enrichment, liver DNA of NHPs
# [7] = NGS fold-enrichment, liver RNA of NHPs
# [8] = NGS fold-enrichment, muscle of NHPs
# [9] = NGS fold-enrichment, brain of mice
Sequence,"Fold Enrichment relative to AAV9, Brain (NHP) [1, 2] [fold]","Fold Enrichment relative to AAV9, DRG (NHP) ([1]; NHP DRG) [fold]","Fold Enrichment relative to AAV9, Heart (NHP) ([1]; NHP heart) [fold]","Fold Enrichment relative to AAV9, Liver DNA (NHP) ([1]; NHP liver, DNA) [fold]","Fold Enrichment relative to AAV9, Liver RNA (NHP) ([1]; NHP liver, RNA) [fold]","Fold Enrichment relative to AAV9, Muscle (NHP) ([1]; NHP muscle) [fold]","Fold Enrichment relative to AAV9, Brain (Mouse) (brain; mouse brain) [fold]",further results
KTINGSGSPHSKAQVGHT,52.624,0.000,0.000,0.192,0.535,0.006,106.448,–
KTINGSGSPHSKAQVPAT,54.475,0.000,0.002,0.223,0.782,0.000,137.743,–
KTINGSGSPHSKAQVPPT,57.316,0.000,0.012,0.200,0.257,0.000,90.220,–
KTINGSGSPHSKAQVPST,54.366,0.000,1.001,0.139,0.202,0.000,117.223,–
KTINGSGSPHSKAQVQQI,57.308,0.000,1.113,0.113,0.000,0.000,61.957,–
KTINGSGSPHSKAQVRNT,52.735,0.000,0.101,0.423,0.230,0.011,68.893,–
KTINGSGSPHSKAQYIHT,–,–,–,–,–,–,–,"Fold Enrichment relative to AAV9, Brain (NHP) ([1]; NGS fold-enrichment of RNA, NHP brain): 76.170 fold; Fold Enrichment relative to AAV9, DRG (NHP) [1, 3]: 0.000 fold; Fold Enrichment relative to AAV9, DRG (NHP) ([1]; NGS fold-enrichment, NHP DRG): 0.000 fold; Fold Enrichment relative to AAV9, Heart (NHP) ([1]; NGS fold-enrichment, NHP heart): 0.014 fold; Fold Enrichment relative to AAV9, Liver DNA (NHP) ([1]; NGS fold-enrichment, NHP liver DNA): 0.168 fold; Fold Enrichment relative to AAV9, Liver RNA (NHP) ([1]; NGS fold-enrichment, NHP liver RNA): 1.523 fold; Fold Enrichment relative to AAV9, Muscle (NHP) ([1]; NGS fold-enrichment, NHP muscle): 0.033 fold; Fold Enrichment relative to AAV9, Brain (NHP) [1, 4]: 76.170 fold; Fold Enrichment relative to AAV9, Heart (NHP) [1, 5]: 0.014 fold; Fold Enrichment relative to AAV9, Liver DNA (NHP) [1, 6]: 0.168 fold; Fold Enrichment relative to AAV9, Liver RNA (NHP) [1, 7]: 1.523 fold; Fold Enrichment relative to AAV9, Muscle (NHP) [1, 8]: 0.033 fold; Fold Enrichment relative to AAV9, Brain (Mouse) (brain; [9]): 59.649 fold; Fold Enrichment relative to AAV9, Brain (Mouse) (brain; NGS fold-enrichment, mouse brain): 59.649 fold"
KTINGSGSPHSKAQYQHA,–,–,–,–,–,–,–,"Fold Enrichment relative to AAV9, DRG (NHP) [1, 3]: 0.000 fold; Fold Enrichment relative to AAV9, Brain (NHP) [1, 4]: 64.435 fold; Fold Enrichment relative to AAV9, Heart (NHP) [1, 5]: 0.000 fold; Fold Enrichment relative to AAV9, Liver DNA (NHP) [1, 6]: 0.097 fold; Fold Enrichment relative to AAV9, Liver RNA (NHP) [1, 7]: 0.993 fold; Fold Enrichment relative to AAV9, Muscle (NHP) [1, 8]: 0.024 fold; Fold Enrichment relative to AAV9, Brain (Mouse) (brain; [9]): 57.278 fold"
KTINGSGSPHSKAQYQNT,50.099,0.000,0.008,0.119,0.017,0.000,71.846,–
KTINGSGSPHSKAQYRAT,51.008,0.000,0.158,0.120,0.690,0.000,50.650,–
KTINGSGSPHSKAQYSVT,57.130,0.000,0.093,0.302,1.235,0.000,60.023,–

# — patent US20260250318A1, “COMPOSITIONS AND METHODS FOR CROSSING THE BLOOD BRAIN BARRIER” (VOYAGER THERAPEUTICS, INC., priority 2022, published 2026)
